{"source": "paper PMC3542062", "about": "“A phenyl-thiadiazolylidene-amine derivative ejects zinc from retroviral nucleocapsid zinc fingers and inactivates HIV virions” (Retrovirology, 2012)", "key": {"[1]": {"test_system": "VZV", "test": "Activity against replication of non-retroviruses", "format": "cell-based"}, "[2]": {"test_system": "HIV-1 virus particles", "test": "Virion-associated p24 of pre-treated, compound-cleared virus (ELISA)", "settings": "compound-cleared HIV-1 virus stock"}, "[3]": {"test_system": "NL4.3/AMD3100R", "test": "microbe, parasite or virus in culture", "format": "cell-based, HIV-1", "settings": "Human immunodeficiency virus 1, Jurkat, 72 h, read-out: EC50 NL4.3/AMD3100R"}, "[4]": {"test_system": "NL4.3/DS5000R", "test": "GFP-assay in Jurkat A72 (LTR-GFP) cells", "format": "cell-based, HIV-1", "settings": "Human immunodeficiency virus 1, Jurkat, 72 h, read-out: EC50 NL4.3/DS5000R"}, "[5]": {"test_system": "NC(11-55)", "test": "Zinc ejection monitored by supramolecular mass spectrometry", "format": "biochemical, HIV-1", "settings": "non-denaturing MS, Vc = 20 V, Pi = 6 mbar", "procedure": "Purity and homogeneity of NC(11-55) were verified by mass analysis in denaturing conditions. In these acidic conditions, zinc is released from the peptide; and a molecular weight of 5137. 7 ± 0.4 Da was measured, in agreement with the expected mass of the zinc-free NC form (5137.9 Da). […] This is in contrast to the earlier discovered DIBA zinc ejectors for which the Zn ejection is accompanied by the formation of covalent complexes formed between the compound and Cys residues of Zn-depleted NCp7 [25].\nFigure 5 Zinc ejection as monitored by mass spectrometry. […] Under non-denaturing conditions (Vc = 20 V, Psi = 6 mbar), the mass measured for NCp7(11-55) alone is 5264.0 Da corresponding to the NC peptide complexed with two zinc ions.\nBefore mass spectrometry (MS) analysis, NC(11-55) was dissolved and buffer exchanged with 50 mM ammonium acetate pH 7.0 using 4 cycles of microcentrifuge size exclusion filtering (Vivaspin 500 5kD, Sartorius Stedim biotech, Aubagne, France) and peptide concentration was measured by a Bradford assay. […]\nAnalyses under non-denaturing conditions were carried out after careful optimization of instrumental settings to avoid dissociation of noncovalent bonds and obtain sensible detection of protein/zinc complexation states. […] Peak intensities were used to estimate the ratios of the different ions detected."}, "[6]": {"test_system": "VSV", "format": "cell-based"}, "[7]": {"test_system": "BCF-Dioum subtype G", "test": "Virucidal assay on clinical isolates, titration on PBMCs", "format": "cell-based, HIV-1", "settings": "125 μM, 1 h 37°C, untreated control 25781"}, "[8]": {"test_system": "HIV-1 IIIB", "test": "GFP-assay in Jurkat A72 (LTR-GFP) cells", "format": "cell-based", "settings": "Human immunodeficiency virus 1, IIIB, 72 h, 3 days after infection"}, "[9]": {"test_system": "UG275 subtype A", "test": "Virucidal assay on clinical isolates, titration on PBMCs", "format": "cell-based, HIV-1", "settings": "125 μM, 1 h 37°C, untreated control 16242"}, "[10]": {"test_system": "HIV-2 ROD", "test": "GFP-assay in Jurkat A72 (LTR-GFP) cells", "format": "cell-based", "settings": "Human immunodeficiency virus 2, 72 h, 3 days after infection"}, "[11]": {"test_system": "BZ163 subtype F", "test": "Virucidal assay on clinical isolates, titration on PBMCs", "format": "cell-based, HIV-1", "settings": "125 μM, 1 h 37°C, untreated control 16242"}, "[12]": {"test_system": "HIV-1 NL4.3 capture by Raji/DC-SIGN cells", "test": "HIV capture by Raji/DC-SIGN cells (procedure A), p24 ELISA", "settings": "HIV pretreated 1 h with compound, then Raji/DC-SIGN cells; p24 of washed cell pellet", "protocol": "After 60 minutes of pre-incubation with the Raji/DC-SIGN cells, unabsorbed virus and test compound were carefully removed by repeated washing steps, and the amount of captured virus was determined by measurement of the virus-associated p24 content on the Raji/DC-SIGN cell surface. The α(1-3)/(1-6)-mannose-specific plant lectin HHA was included as a positive control for inhibition of virus capture by Raji/DC-SIGN cells.\nThen, 0.5 ml exponentially growing Raji/DC-SIGN cells (10^6 cells) was added, and the suspension further incubated at 37°C for 60 minutes. Subsequently, 39 ml medium was added and the cell suspension was centrifuged at 300 g for 10 minutes. The obtained pellet was washed again with 40 ml medium and after centrifugation, the cell pellet (containing DC-SIGN-bound virus) was analyzed for p24 antigen content by ELISA. […] In the above-described experiments, the mannose-binding entry inhibitor HHA was included as a reference compound."}, "[13]": {"test_system": "HIV-1 IIIB", "test": "Anti-HIV activity in CEM cells (cytopathogenicity)", "format": "cell-based", "settings": "Human immunodeficiency virus 1, IIIB, CCRF-CEM"}, "[14]": {"test_system": "HIV-2 ROD", "test": "MT-4/MTT-assay, protection against virus-induced cytopathic effect", "format": "cell-based", "settings": "Human immunodeficiency virus 2, MT4, 120 h; MT-4 cells, MTT, 5 days after infection"}, "[15]": {"test_system": "HIV-2 ROD", "test": "Anti-HIV activity in CEM cells (cytopathogenicity)", "format": "cell-based", "settings": "Human immunodeficiency virus 2, CCRF-CEM"}, "[16]": {"test_system": "HIV-1 IIIB", "test": "Virucidal assay: virus pre-incubated with compound, diluted, titrated on MT-4 cells", "settings": "for CCID50/ml HIV-1 IIIB: no drug 1 × 10^6"}}, "data": [{"smiles": "Cn1sc(=N)nc1-c1ccccc1", "note": "[WDO-217, 2-methyl-3-phenyl-2H-[1,2,4]thiadiazol-5-ylideneamine]", "values": [{"measurement": "activity against replication of VZV", "setting": "[1]", "result": "inactive"}, {"measurement": "virus-associated p24 core protein after treatment", "setting": "[2]", "result": "did not affect"}, {"measurement": "EC50", "setting": "[3]", "result": "1700 ± 900", "unit": "nM"}, {"measurement": "EC50", "setting": "[4]", "result": "1200 ± 100", "unit": "nM"}, {"measurement": "covalent complex between NC(11-55) and compound", "setting": "[5]", "result": "no covalent complex"}, {"measurement": "activity against replication of VSV", "setting": "[6]", "result": "inactive"}, {"measurement": "CCID50/ml BCF-Dioum subtype G", "setting": "[7]", "result": 2558, "unit": "CCID50/ml"}, {"measurement": "EC50", "setting": "[8]", "result": "1040 ± 200", "unit": "nM"}, {"measurement": "CCID50/ml UG275 subtype A", "setting": "[9]", "result": 2558, "unit": "CCID50/ml"}, {"measurement": "EC50", "setting": "[10]", "result": "1040 ± 300", "unit": "nM"}, {"measurement": "CCID50/ml BZ163 subtype F", "setting": "[11]", "result": 2558, "unit": "CCID50/ml"}, {"measurement": "IC50 HIV-capture procedure A", "setting": "[12]", "result": "not able to prevent binding"}, {"measurement": "EC50", "setting": "[13]", "result": "8300 ± 1800", "unit": "nM"}, {"measurement": "EC50", "setting": "[14]", "result": "2300 ± 300", "unit": "nM"}, {"measurement": "EC50", "setting": "[15]", "result": "15000 ± 6700", "unit": "nM"}, {"measurement": "CCID50/ml HIV-1 IIIB", "setting": "[16]; virus incubated 1 h 37°C with 0.2 μM", "result": "5.4 × 10^6 CCID50/ml"}, {"measurement": "CCID50/ml HIV-1 IIIB", "setting": "[16]; virus incubated 1 h 37°C with 1 μM", "result": "1.6 × 10^6 CCID50/ml"}, {"measurement": "CCID50/ml HIV-1 IIIB", "setting": "[16]; virus incubated 1 h 37°C with 5 μM", "result": "1 × 10^6 CCID50/ml"}, {"measurement": "CCID50/ml HIV-1 IIIB", "setting": "[16]; virus incubated 1 h 37°C with 25 μM", "result": 0, "unit": "CCID50/ml"}, {"measurement": "CCID50/ml HIV-1 IIIB", "setting": "[16]; virus incubated 1 h 37°C with 625 μM", "result": 0, "unit": "CCID50/ml"}, {"measurement": "Infectivity of pre-incubated HIV-1 virus", "setting": "[16]; virus incubated at 26, 130 and 650 μM, 1 h 37°C", "result": "no longer able to infect cells"}]}]}
